Broadly, the IC50 is the concentration that gives 50% inhibition. The low end stands for greater potency, the high end for weaker potency.

Results on 11 compounds are retold here after ChEMBL document CHEMBL5465560, “Selectivity Literature for EUbOPEN Chemogenomic Library” (2024).

Some results are limits rather than exact numbers.

The target of assay [1] is Ribosomal protein S6 kinase alpha-5 (Homo sapiens) (UniProt O75582). As to the kind of experiment: Selectivity interaction (ProQinase) EUB0000171b RPS6KA5.
Chain of Ribosomal protein S6 kinase alpha-5 (Homo sapiens) (O75582 whole entry, looked up): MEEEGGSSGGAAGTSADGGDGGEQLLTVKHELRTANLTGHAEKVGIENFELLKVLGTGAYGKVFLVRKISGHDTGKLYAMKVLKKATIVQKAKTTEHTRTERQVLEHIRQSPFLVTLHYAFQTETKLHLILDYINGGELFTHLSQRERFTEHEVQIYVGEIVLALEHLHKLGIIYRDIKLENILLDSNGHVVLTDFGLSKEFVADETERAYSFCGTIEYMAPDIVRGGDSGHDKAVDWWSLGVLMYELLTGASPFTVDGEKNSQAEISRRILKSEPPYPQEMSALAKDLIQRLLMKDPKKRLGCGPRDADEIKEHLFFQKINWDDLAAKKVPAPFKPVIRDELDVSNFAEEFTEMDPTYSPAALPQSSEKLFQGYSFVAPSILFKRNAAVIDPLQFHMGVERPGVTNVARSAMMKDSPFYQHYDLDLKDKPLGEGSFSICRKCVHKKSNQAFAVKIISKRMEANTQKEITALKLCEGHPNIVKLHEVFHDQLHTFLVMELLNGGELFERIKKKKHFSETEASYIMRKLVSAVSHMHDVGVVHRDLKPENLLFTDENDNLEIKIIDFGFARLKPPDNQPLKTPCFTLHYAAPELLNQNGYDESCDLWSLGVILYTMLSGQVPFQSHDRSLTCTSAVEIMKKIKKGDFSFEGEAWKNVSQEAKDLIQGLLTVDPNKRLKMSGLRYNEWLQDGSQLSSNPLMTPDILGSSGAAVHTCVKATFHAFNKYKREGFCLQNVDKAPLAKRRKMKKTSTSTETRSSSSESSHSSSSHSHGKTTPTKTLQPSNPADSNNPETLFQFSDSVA
For assay [2], the target named is Mitogen-activated protein kinase 8 (Homo sapiens, UniProt P45983). As to the kind of experiment: Selectivity interaction (Enyzmatic assay) EUB0000601a MAPK8.
Chain of Mitogen-activated protein kinase 8 (P45983 whole entry): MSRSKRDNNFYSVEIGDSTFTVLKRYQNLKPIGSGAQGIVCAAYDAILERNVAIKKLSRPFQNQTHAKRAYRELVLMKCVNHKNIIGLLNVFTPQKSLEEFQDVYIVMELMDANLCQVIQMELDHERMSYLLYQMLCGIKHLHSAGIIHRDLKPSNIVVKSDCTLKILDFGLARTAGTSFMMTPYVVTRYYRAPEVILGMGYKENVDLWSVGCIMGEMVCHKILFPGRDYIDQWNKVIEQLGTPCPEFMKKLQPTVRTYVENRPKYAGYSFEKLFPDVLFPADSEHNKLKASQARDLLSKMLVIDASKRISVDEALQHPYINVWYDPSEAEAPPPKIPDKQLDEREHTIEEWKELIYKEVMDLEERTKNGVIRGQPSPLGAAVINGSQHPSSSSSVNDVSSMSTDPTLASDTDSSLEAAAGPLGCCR
Assay [3] concerns eIF-2-alpha kinase GCN2 (Homo sapiens), Q9P2K8 [S808G]. As to the kind of experiment: Selectivity interaction (KinomeScan (DiscoverX)) EUB0001079a EIF2AK4. Conditions: at 1 µM.
Assay [4] concerns the target TGF-beta receptor type-2 (Homo sapiens) (UniProt P37173). As to the kind of experiment: Selectivity interaction (KinomeScan (DiscoverX)) EUB0001079a TGFBR2. Particulars: at 1 µM.
In assay [5] the target is Serine/threonine-protein kinase RIO2 (Homo sapiens) (UniProt Q9BVS4). The experiment in a line: Selectivity interaction (KinomeScan (DiscoverX)) EUB0000092b RIOK2. Particulars: at 10 µM.
The target in assay [6] is Homeodomain-interacting protein kinase 1 (Homo sapiens, UniProt Q86Z02). The experiment in a line: Selectivity interaction (KinomeScan (DiscoverX)) EUB0000655a HIPK1. Particulars: at 10 µM.
The target of a further assay is D(2) dopamine receptor (Homo sapiens, UniProt P14416). As to the kind of experiment: Selectivity interaction (Panel of kinases, GPCRs, ion channels and transporters (enzymatic assay)) EUB0000223bCl DRD2.
Chain of D(2) dopamine receptor (P14416 whole entry): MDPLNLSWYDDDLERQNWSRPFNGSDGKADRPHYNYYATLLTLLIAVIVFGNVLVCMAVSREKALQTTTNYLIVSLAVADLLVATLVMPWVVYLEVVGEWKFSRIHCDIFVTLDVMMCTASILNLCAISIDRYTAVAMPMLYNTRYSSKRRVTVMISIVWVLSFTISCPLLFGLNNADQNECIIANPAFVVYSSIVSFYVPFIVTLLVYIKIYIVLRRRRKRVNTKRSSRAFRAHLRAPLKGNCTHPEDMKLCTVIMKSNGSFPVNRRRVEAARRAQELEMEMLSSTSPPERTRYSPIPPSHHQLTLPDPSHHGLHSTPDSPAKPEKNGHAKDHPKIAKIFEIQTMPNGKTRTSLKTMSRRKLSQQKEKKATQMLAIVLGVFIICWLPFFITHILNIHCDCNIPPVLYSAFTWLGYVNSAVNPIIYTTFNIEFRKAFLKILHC
Assay [7] deals with MAP kinase-activated protein kinase 2 (Homo sapiens, UniProt P49137). The experiment in a line: Selectivity interaction (KinomeScan (DiscoverX)) EUB0000695a MAPKAPK2. Particulars: at 100 nM.
Assay [8] has as its target Proto-oncogene tyrosine-protein kinase ROS (Homo sapiens) (UniProt P08922). As to the kind of experiment: Selectivity interaction (KinomeScan (DiscoverX)) EUB0000045b ROS1.
Assay [9] has as its target Atypical kinase COQ8A, mitochondrial (Homo sapiens, UniProt Q8NI60). The experiment in a line: Selectivity interaction (KinomeScan (DiscoverX)) EUB0000045b ADCK3.
For assay [10], the target named is Serine/threonine-protein kinase MRCK alpha (Homo sapiens) (UniProt Q5VT25). The experiment in a line: Selectivity interaction (KinomeScan (DiscoverX)) EUB0000229b CDC42BPA. Conditions: at 10 µM.
The target in assay [11] is T1, Inhibitor of nuclear factor kappa-B kinase subunit epsilon (Homo sapiens) (UniProt Q14164).
T1 sequence (whole entry): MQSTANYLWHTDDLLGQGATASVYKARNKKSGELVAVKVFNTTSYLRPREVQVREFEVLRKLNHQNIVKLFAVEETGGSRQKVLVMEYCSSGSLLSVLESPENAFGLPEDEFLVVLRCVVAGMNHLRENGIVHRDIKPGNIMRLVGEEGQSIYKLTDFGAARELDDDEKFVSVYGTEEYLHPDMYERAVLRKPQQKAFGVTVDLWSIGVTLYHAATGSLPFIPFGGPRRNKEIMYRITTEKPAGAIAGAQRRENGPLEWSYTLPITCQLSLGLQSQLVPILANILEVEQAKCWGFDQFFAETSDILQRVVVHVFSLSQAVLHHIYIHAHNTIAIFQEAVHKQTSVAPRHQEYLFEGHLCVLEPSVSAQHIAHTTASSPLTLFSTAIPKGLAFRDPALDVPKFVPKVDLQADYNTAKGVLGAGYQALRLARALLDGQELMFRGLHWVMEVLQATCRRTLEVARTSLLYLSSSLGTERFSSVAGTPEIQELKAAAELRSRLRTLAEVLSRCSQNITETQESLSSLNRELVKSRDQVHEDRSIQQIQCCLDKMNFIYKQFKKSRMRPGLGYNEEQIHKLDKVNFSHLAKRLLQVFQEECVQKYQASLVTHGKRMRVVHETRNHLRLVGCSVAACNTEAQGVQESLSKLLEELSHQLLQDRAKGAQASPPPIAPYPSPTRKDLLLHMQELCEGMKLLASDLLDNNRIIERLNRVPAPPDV
As to the kind of experiment: Selectivity interaction (KinomeScan (DiscoverX)) EUB0000229b IKBKE. Conditions: at 10 µM.

The target in assay [12] is T2, Cyclin-dependent kinase 11A (Homo sapiens) (UniProt Q9UQ88).
T2 sequence (whole entry): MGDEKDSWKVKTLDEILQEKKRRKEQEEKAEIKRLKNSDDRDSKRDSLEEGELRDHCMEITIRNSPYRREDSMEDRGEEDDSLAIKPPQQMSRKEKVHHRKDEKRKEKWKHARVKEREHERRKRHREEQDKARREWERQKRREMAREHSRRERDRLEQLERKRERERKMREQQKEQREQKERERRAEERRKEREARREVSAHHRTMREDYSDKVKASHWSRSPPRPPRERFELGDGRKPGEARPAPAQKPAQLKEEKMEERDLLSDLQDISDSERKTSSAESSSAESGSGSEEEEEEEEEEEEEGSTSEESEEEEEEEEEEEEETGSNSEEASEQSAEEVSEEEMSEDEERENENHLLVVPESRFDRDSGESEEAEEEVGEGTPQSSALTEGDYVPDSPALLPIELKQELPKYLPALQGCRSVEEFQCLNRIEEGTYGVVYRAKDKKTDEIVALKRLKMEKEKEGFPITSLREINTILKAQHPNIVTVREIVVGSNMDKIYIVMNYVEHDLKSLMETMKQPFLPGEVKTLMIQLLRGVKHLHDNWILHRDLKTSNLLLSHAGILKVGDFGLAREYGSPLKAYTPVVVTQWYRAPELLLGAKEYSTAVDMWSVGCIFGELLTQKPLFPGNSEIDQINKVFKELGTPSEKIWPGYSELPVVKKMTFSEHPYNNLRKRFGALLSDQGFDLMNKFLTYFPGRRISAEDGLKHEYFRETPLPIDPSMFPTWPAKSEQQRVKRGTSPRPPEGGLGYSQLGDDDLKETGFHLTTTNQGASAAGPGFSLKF
The experiment in a line: Selectivity interaction (KinomeScan (DiscoverX)) EUB0001619a CDK11A. Conditions: at 1 µM.

Assay [13] addresses Cyclin-dependent kinase 17 (Homo sapiens) (UniProt Q00537). The experiment in a line: Selectivity interaction (KinomeScan (DiscoverX)) EUB0000618a CDK17. Particulars: at 10 µM.

Chain of Atypical kinase COQ8A, mitochondrial (Q8NI60 163-647 limits assumed): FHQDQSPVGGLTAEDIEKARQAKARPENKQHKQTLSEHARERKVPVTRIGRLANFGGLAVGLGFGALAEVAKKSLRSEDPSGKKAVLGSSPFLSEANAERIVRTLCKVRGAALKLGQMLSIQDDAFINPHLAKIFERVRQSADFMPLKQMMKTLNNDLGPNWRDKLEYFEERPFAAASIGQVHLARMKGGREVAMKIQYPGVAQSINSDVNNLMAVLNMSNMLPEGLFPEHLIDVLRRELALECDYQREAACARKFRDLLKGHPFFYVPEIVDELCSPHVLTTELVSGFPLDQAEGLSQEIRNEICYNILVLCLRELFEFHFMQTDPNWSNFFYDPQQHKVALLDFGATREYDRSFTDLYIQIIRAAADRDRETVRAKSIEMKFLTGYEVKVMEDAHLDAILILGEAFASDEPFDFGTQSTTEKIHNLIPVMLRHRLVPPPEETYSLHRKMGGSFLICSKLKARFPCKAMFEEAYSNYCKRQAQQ
Chain of Proto-oncogene tyrosine-protein kinase ROS (Homo sapiens) (P08922 whole entry): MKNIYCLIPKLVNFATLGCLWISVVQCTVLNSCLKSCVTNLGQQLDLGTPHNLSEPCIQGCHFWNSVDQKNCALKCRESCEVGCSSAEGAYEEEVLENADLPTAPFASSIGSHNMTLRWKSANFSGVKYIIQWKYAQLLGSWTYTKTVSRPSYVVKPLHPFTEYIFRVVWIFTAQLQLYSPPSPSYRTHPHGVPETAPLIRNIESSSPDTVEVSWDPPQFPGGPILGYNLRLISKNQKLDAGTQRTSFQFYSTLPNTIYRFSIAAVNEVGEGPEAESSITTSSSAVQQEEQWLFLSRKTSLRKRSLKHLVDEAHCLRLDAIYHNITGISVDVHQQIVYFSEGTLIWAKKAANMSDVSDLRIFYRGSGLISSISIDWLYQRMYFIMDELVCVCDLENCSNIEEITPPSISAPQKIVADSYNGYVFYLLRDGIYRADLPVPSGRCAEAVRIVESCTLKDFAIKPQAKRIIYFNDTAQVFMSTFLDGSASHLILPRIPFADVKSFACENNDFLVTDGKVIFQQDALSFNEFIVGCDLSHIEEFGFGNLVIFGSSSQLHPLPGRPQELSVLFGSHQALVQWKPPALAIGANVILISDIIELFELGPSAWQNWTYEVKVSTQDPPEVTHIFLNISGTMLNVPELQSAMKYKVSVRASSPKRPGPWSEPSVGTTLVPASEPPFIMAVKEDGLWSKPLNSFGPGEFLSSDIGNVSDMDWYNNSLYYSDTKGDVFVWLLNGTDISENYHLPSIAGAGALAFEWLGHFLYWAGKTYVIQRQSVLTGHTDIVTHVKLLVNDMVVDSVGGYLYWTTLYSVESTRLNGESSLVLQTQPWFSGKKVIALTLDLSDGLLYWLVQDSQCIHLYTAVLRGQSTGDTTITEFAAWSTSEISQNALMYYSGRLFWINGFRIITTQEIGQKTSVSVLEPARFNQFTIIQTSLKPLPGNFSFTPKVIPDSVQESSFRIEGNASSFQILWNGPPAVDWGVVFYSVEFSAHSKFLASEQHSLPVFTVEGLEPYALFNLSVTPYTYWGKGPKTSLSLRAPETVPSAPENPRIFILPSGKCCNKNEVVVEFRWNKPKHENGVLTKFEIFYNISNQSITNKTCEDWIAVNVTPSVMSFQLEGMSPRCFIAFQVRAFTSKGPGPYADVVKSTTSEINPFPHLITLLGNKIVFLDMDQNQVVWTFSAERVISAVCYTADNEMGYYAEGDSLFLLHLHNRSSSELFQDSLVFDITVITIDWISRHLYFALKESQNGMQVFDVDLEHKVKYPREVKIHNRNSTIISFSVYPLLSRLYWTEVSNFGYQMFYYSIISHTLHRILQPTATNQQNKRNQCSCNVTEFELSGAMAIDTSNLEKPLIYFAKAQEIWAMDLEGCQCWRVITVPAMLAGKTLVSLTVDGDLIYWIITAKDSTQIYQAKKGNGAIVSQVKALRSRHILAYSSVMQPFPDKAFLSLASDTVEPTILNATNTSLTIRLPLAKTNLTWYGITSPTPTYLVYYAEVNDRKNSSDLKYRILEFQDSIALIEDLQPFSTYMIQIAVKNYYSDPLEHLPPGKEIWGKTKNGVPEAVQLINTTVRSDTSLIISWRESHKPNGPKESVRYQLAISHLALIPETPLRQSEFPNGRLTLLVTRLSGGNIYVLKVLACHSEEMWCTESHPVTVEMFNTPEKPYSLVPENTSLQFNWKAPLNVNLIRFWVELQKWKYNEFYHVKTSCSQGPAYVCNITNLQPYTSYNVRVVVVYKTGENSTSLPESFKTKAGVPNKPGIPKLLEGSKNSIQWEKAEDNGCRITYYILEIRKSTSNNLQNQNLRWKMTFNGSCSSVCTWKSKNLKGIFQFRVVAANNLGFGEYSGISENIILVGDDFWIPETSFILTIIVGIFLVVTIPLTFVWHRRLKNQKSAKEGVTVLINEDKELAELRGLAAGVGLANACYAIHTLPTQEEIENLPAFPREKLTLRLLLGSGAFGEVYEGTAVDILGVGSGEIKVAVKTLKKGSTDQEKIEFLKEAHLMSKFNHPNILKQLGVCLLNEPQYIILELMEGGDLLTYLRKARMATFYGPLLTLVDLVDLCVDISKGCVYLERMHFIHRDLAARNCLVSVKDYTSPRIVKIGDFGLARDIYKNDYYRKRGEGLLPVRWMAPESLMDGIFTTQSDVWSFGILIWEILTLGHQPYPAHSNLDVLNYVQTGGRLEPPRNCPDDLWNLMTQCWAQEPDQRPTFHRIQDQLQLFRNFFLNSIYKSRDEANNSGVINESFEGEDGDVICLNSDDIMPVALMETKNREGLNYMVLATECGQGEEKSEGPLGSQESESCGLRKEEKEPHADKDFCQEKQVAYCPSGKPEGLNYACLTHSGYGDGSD
Chain of TGF-beta receptor type-2 (Homo sapiens) (P37173 whole entry): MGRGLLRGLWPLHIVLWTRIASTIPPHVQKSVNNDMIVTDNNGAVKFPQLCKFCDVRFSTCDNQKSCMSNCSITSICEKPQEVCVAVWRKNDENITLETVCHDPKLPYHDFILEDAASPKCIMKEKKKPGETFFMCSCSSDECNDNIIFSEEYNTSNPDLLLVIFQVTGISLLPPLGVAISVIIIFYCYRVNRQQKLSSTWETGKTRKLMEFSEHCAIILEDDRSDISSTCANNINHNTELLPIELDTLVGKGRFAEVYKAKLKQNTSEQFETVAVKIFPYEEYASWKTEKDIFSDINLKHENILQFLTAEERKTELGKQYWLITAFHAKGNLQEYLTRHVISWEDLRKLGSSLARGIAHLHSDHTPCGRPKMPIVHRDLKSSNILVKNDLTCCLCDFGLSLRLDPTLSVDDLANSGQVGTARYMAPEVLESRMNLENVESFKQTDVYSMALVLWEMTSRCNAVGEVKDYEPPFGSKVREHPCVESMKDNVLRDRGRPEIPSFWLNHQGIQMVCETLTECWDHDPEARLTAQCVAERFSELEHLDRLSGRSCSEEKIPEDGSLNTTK

As to `C=CC(=O)Nc1cccc(C(=O)Nc2ccc(Nc3cc(-c4[nH]c(SC)nc4C)ccn3)cc2)c1`, the % of control stood at 94% in assay [1] (at 1 µM) and 87% in assay [1] (at 5 µM).

For `CCc1cc(Nc2nccc(-c3c(-c4ccc(OC)c(C(=O)Nc5c(F)cccc5F)c4)nc4ccccn34)n2)c(OC)cc1N1CCC(N2CCN(S(C)(=O)=O)CC2)CC1`, the half-inhibitory concentration (IC50) in assay [2] was more than 10 µM.

With `Nc1cnc(N2CCc3cc(S(=O)(=O)Nc4c(F)cc(Cl)cc4F)cc(N4CCCC4=O)c32)nc1` [TP-020n], the values for the % of control in [3] and in assay [4] were 100% and 92%, respectively.

Compound `CCC(=O)N1CCN(c2ccc(-n3c(=O)ccc4cnc5ccc(-c6cnc7ccccc7c6)cc5c43)cc2C(F)(F)F)CC1` gave a % of control in assay [5] of 24%.

In turn, `CN(C)CCOc1ccc(-c2nc(-c3ccncc3)c(-c3ccc4c(c3)CC/C4=N\O)[nH]2)cc1` showed a % of control in assay [6] of 11%.

Consider `COc1cc(C(=O)N2CC[C@@H](O)[C@@H](N)C2)cc2nc(-c3cc4ccccc4n3CC3CC3)n(C)c12`, for which the pXC50 at D(2) dopamine receptor was less than 4 M.

`Cc1cc(F)c(C(=O)Nc2cccc(-c3nncn3C(C)C)n2)cc1-n1cnc(C2CC2)c1` yielded a % of control in [7] of 57%.

For `C=CC(=O)Nc1cc(-n2c(=O)ccc3cnc4ccc(-c5ccc(NS(C)(=O)=O)cc5)cc4c32)ccc1C`, the % of control in [8] (at 1 µM) turned out to be 81%; in [8] (at 10 µM) it was 83%; in assay [9] (at 1 µM) it was 100%; in [9] (at 10 µM), 82%.

For the compound `COc1cc(N(C)c2ccnc3ccc(C(F)(F)F)cc23)cc(OC)c1OC`, the % binding is 100% in assay [10] and 84% in assay [11].

`N#Cc1cccc(-c2c[nH]c3ncnc(N4CCOCC4)c23)c1` yielded a % of control in assay [12] of 48%.

For the compound `O[C@H]1CC[C@H](Nc2ncc3nc(Nc4c(F)cc(F)cc4F)n([C@H]4CCOC4)c3n2)CC1`, the % of control in [13] came out at 100%.
